# Target: T1, human acetyl-CoA carboxylase 2 (ACC2) (Homo sapiens, UniProt O00763)
# T1 construct: The cDNA encoding amino acids 144 to 2458 of human acetyl-CoA carboxylase 2; made in house; host or cells: Sf9 insect cells (baculovirus, pFastBac1)
# Assay: Acetyl-CoA carboxylase enzyme assay (malonyl-CoA formation by LC/MS/MS)
# Type: biochemical
# Settings: recombinant human ACC2 (aa 144-2458); read-out: IC50 ACC2
# Method in brief: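 Malonyl-CoA formation was read by LC/MS/MS MRM against a [13C3]-malonyl-CoA internal standard, after acetic acid quench. The enzyme was baculovirus/Sf9-expressed human ACC2 residues 144–2458, given 15 minutes room-temperature compound preincubation in HEPES pH 7.5 buffer with MgCl2, citrate and DTT. Substrate solution held 50 μM acetyl-CoA, 120 μM ATP and 2 mM KHCO3.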
# T1 sequence (O00763 144-2458): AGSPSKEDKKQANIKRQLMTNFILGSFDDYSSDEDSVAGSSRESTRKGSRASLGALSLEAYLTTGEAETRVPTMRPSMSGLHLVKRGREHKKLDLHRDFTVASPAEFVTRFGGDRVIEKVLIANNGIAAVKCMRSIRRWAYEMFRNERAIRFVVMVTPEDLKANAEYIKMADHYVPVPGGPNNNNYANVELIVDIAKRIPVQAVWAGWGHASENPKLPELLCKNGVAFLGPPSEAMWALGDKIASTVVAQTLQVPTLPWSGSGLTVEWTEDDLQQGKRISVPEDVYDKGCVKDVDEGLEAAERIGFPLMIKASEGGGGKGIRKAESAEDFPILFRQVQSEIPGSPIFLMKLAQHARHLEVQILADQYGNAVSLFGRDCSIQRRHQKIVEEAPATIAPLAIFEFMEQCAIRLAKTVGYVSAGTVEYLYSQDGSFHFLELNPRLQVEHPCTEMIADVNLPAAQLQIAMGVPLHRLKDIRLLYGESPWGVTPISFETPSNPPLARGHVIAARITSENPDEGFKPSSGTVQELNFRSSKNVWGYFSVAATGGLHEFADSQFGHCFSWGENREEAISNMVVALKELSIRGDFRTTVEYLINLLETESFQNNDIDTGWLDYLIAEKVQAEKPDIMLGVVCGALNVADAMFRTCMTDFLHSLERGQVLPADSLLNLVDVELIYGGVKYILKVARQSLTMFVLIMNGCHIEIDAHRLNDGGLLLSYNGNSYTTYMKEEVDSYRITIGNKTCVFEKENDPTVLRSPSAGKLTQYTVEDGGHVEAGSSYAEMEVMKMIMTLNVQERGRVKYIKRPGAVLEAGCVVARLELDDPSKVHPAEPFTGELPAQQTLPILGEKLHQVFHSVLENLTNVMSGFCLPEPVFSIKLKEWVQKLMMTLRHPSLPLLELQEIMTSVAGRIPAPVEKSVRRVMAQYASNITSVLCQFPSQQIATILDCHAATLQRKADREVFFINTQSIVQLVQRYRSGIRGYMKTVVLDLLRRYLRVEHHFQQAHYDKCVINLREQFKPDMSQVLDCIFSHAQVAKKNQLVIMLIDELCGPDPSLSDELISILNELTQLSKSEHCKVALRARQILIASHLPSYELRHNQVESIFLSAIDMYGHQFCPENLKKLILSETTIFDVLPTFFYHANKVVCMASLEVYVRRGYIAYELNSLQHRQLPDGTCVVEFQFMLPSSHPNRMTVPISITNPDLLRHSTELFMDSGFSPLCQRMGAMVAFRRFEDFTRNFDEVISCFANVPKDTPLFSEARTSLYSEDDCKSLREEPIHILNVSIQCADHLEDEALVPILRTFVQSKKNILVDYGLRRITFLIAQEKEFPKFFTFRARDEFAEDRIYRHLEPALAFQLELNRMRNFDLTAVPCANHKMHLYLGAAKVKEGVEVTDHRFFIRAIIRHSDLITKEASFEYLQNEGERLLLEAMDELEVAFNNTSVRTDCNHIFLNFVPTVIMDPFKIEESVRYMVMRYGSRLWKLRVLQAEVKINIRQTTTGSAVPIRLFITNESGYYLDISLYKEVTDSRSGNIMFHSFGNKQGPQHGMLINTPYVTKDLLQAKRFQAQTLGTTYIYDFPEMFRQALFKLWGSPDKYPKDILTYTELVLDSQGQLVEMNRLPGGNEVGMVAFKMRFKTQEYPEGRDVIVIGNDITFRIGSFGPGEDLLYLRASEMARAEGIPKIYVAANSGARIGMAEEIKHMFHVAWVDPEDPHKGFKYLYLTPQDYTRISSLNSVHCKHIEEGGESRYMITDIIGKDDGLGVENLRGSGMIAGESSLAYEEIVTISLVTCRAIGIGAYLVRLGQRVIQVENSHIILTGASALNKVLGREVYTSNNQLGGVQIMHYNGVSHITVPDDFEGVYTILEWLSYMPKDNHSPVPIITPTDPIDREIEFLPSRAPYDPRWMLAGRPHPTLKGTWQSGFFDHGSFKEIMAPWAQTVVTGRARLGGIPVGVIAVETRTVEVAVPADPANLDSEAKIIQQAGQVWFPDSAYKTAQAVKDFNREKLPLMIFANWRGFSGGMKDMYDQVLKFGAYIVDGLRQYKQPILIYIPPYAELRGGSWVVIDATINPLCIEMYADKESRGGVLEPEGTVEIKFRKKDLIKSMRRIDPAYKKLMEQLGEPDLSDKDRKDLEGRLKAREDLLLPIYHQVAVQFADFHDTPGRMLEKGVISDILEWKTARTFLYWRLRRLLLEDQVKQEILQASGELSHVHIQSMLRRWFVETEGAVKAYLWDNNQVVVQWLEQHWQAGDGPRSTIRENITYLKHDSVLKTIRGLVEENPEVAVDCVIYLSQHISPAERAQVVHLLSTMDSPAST
row,IC50,Compound
1,> 139 µM,"O=C(Nc1ccccc1)c1ccc(NS(=O)(=O)c2ccc3[nH]c(-c4ccccc4)nc3c2)cc1 [Example 490, N-phenyl-4-(2-phenyl-1H-benzo[d]imidazole-5-sulfonamido)benzamide]"
2,1.13 µM,"CCCCOC(=O)c1ccc(NS(=O)(=O)c2ccc3nc(-c4ccccc4)[nH]c3c2)cc1 [Example 491, butyl 4-(2-phenyl-1H-benzo[d]imidazole-6-sulfonamido)benzoate]"
3,1.35 µM,"COc1ccccc1-c1nc2ccc(S(=O)(=O)Nc3ccc(C(=O)OC(C)C)cc3)cc2[nH]1 [Example 492, isopropyl 4-(2-(2-methoxyphenyl)-1H-benzo[d]imidazole-6-sulfonamido)benzoate]"
4,> 139 µM,"CCCOC(=O)c1ccc(OS(=O)(=O)c2ccc3nc(-c4ccccc4)[nH]c3c2)cc1 [Example 493, propyl 4-(2-phenyl-1H-benzo[d]imidazol-6-ylsulfonyloxy)benzoate]"
5,1.89 µM,"CC(=O)c1cccc(-c2nc3ccc(S(=O)(=O)Nc4ccc(C(=O)OC(C)C)cc4)cc3[nH]2)c1 [Example 494, isopropyl 4-(2-(3-acetylphenyl)-1H-benzo[d]imidazole-6-sulfonamido)benzoate]"
6,0.99 µM,"CC(=O)c1ccc(-c2nc3ccc(S(=O)(=O)Nc4ccc(C(=O)OC(C)C)cc4)cc3[nH]2)cc1 [Example 495, isopropyl 4-(2-(4-acetylphenyl)-1H-benzo[d]imidazole-6-sulfonamido)benzoate]"
7,2.34 µM,"CC(C)OC(=O)c1ccc(NS(=O)(=O)c2ccc3nc(-c4cccc(F)c4)[nH]c3c2)cc1 [Example 496, isopropyl 4-(2-(3-fluorophenyl)-1H-benzo[d]imidazole-6-sulfonamido)benzoate]"
8,0.762 µM,"COc1ccc(-c2nc3ccc(S(=O)(=O)Nc4ccc(C(=O)OC(C)C)cc4)cc3[nH]2)cc1 [Example 497, isopropyl 4-(2-(4-methoxyphenyl)-1H-benzo[d]imidazole-6-sulfonamido)benzoate]"
9,0.495 µM,"CC(=O)Nc1ccc(-c2nc3ccc(S(=O)(=O)Nc4ccc(C(=O)OC(C)C)cc4)cc3[nH]2)cc1 [Example 498, isopropyl 4-(2-(4-acetamidophenyl)-1H-benzo[d]imidazole-6-sulfonamido)benzoate]"
10,2.11 µM,"CC(C)OC(=O)c1ccc(NS(=O)(=O)c2ccc3nc(-c4ccc(F)cc4)[nH]c3c2)cc1 [Example 499, isopropyl 4-(2-(4-fluorophenyl)-1H-benzo[d]imidazole-6-sulfonamido)benzoate]"
11,1.49 µM,"COc1cccc(-c2nc3ccc(S(=O)(=O)Nc4ccc(C(=O)OC(C)C)cc4)cc3[nH]2)c1 [Example 500, isopropyl 4-(2-(3-methoxyphenyl)-1H-benzo[d]imidazole-6-sulfonamido)benzoate]"
12,1.66 µM,"Cc1cccc(-c2nc3ccc(S(=O)(=O)Nc4ccc(C(=O)OC(C)C)cc4)cc3[nH]2)c1 [Example 501, isopropyl 4-(2-m-tolyl-1H-benzo[d]imidazole-6-sulfonamido)benzoate]"
13,1.28 µM,"CC(C)OC(=O)c1ccc(NS(=O)(=O)c2ccc3nc(-c4ccccc4F)[nH]c3c2)cc1 [Example 502, isopropyl 4-(2-(2-fluorophenyl)-1H-benzo[d]imidazole-6-sulfonamido)benzoate]"
14,0.819 µM,"CC(C)OC(=O)c1ccc(NS(=O)(=O)c2ccc3nc(-c4ccc(O)cc4)[nH]c3c2)cc1 [Example 503, isopropyl 4-(2-(4-hydroxyphenyl)-1H-benzo[d]imidazole-6-sulfonamido)benzoate]"
15,1.74 µM,"Cc1ccc(-c2nc3ccc(S(=O)(=O)Nc4ccc(C(=O)OC(C)C)cc4)cc3[nH]2)cc1 [Example 504, isopropyl 4-(2-p-tolyl-1H-benzo[d]imidazole-6-sulfonamido)benzoate]"
16,1.78 µM,"CC(C)OC(=O)c1ccc(NS(=O)(=O)c2ccc3nc(-c4ccc(OC(C)C)cc4)[nH]c3c2)cc1 [Example 505, isopropyl 4-(2-(4-isopropoxyphenyl)-1H-benzo[d]imidazole-6-sulfonamido)benzoate]"
17,1.95 µM,"CC(C)OC(=O)c1ccc(NS(=O)(=O)c2ccc3nc(-c4ccc(C(C)C)cc4)[nH]c3c2)cc1 [Example 506, isopropyl 4-(2-(4-isopropylphenyl)-1H-benzo[d]imidazole-6-sulfonamido)benzoate]"
18,22.1 µM,"CC(C)OC(=O)c1ccc(NS(=O)(=O)c2ccc3nc(-c4ccc(Oc5ccccc5)cc4)[nH]c3c2)cc1 [Example 507, isopropyl 4-(2-(4-phenoxyphenyl)-1H-benzo[d]imidazole-6-sulfonamido)benzoate]"
19,1.38 µM,"CC(C)OC(=O)c1ccc(NS(=O)(=O)c2ccc3nc(-c4ccc(N(C)C)cc4)[nH]c3c2)cc1 [Example 508, isopropyl 4-(2-(4-(dimethylamino)phenyl)-1H-benzo[d]imidazole-6-sulfonamido)benzoate]"
20,0.678 µM,"CC(C)OC(=O)c1ccc(NS(=O)(=O)c2ccc3nc(-c4ccc(C(=O)O)cc4)[nH]c3c2)cc1 [Example 509, 4-(6-(N-(4-(isopropoxycarbonyl)phenyl)sulfamoyl)-1H-benzo[d]imidazol-2-yl)benzoic acid]"
21,1.81 µM,"CC(C)OC(=O)c1ccc(NS(=O)(=O)c2ccc3nc(-c4cncs4)[nH]c3c2)cc1 [Example 510, isopropyl 4-(2-(thiazol-5-yl)-1H-benzo[d]imidazole-6-sulfonamido)benzoate]"
22,1.05 µM,"CC(C)OC(=O)c1ccc(NS(=O)(=O)c2ccc3nc(-c4cccc(O)c4)[nH]c3c2)cc1 [Example 511, isopropyl 4-(2-(3-hydroxyphenyl)-1H-benzo[d]imidazole-6-sulfonamido)benzoate]"
23,2.29 µM,"CC(C)OC(=O)c1ccc(NS(=O)(=O)c2ccc3nc(-c4ccc(C(C)(C)C)cc4)[nH]c3c2)cc1 [Example 512, isopropyl 4-(2-(4-tert-butylphenyl)-1H-benzo[d]imidazole-6-sulfonamido)benzoate]"
24,2.88 µM,"CC(C)(C)c1nnc(-c2ccc(NS(=O)(=O)c3ccc4nc(-c5ccccc5)[nH]c4c3)cc2)o1 [Example 513, N-(4-(5-tert-butyl-1,3,4-oxadiazol-2-yl)phenyl)-2-phenyl-1H-benzo[d]imidazole-6-sulfonamide]"
25,0.838 µM,"CC(C)OC(=O)c1ccc(NS(=O)(=O)c2ccc3nc(-c4ccc(S(C)(=O)=O)cc4)[nH]c3c2)cc1 [Example 514, isopropyl 4-(2-(4-(methylsulfonyl)phenyl)-1H-benzo[d]imidazole-6-sulfonamido)benzoate]"
26,2.86 µM,"CC(C)OC(=O)c1ccc(NS(=O)(=O)c2ccc3nc(-c4ccncc4)[nH]c3c2)cc1 [Example 515, isopropyl 4-(2-(pyridin-4-yl)-1H-benzo[d]imidazole-6-sulfonamido)benzoate]"
27,1.21 µM,"COc1ccc(-c2nc3ccc(S(=O)(=O)Nc4ccc(C(=O)OC(C)C)cc4)cc3[nH]2)cc1OC [Example 516, isopropyl 4-(2-(3,4-dimethoxyphenyl)-1H-benzo[d]imidazole-6-sulfonamido)benzoate]"
28,0.247 µM,"CC(C)OC(=O)c1ccc(NS(=O)(=O)c2ccc3nc(-c4ccc(C(C)O)cc4)[nH]c3c2)cc1 (stereo not shown) [Example 517, isopropyl 4-(2-(4-(1-hydroxyethyl)phenyl)-1H-benzo[d]imidazole-6-sulfonamido)benzoate]"

# — patent US8697739B2, “Bicyclic acetyl-CoA carboxylase inhibitors and uses thereof” (Novartis AG, priority 2010, dated 2014)
